Data from patent US8969405B2, “Anticancer compounds and methods of making and using same” (St. Jude Children's Research Hospital, priority 2008, dated 2015).

Experiments:
[1] = test system: JeKo-1 mantle cell lymphoma cell line; assay: In vitro cytotoxicity analysis (XTT), 72-hour exposure; assay type: cell-based; settings: Homo sapiens, JEKo1 cells
Protocol: (§1) Briefly, cell lines were seeded at various cell densities depending on the cell type.
(§2) Tables 1-3 display cytotoxicity data for exemplary compounds following a 72-hour exposure.

[2] = test system: PC-3 prostate cancer cell line; assay: as above; assay type: cell-based; settings: Homo sapiens, PC3 cells
Protocol: as §1, §2

[3] = test system: JVM-2 mantle cell lymphoma cell line; assay: as above; assay type: cell-based; settings: Homo sapiens, JVM-2 cells
Protocol: as §1, §2

[4] = test system: WiDr colorectal cancer cell line; assay: as above; assay type: cell-based; settings: Homo sapiens, read-out: Cytotoxicity IC50
Protocol: as §1

[5] = Stability study in buffer solution by HPLC; assay type: physicochemical; settings: 100 μM in PBS, pH 7.4
Protocol: Stability studies were performed for exemplary compounds 48 and 15. A 100 μM solution of compound 48 was prepared in buffer (PBS, pH 7.4) and warfarin was used as an internal standard. A sample was injected into a HPLC periodically starting at day 0 and ending at about 6 weeks to find out the stability of compound 48 in PBS solution. […] After 6 weeks, 58% of compound 48 remained in the buffer solution.

Row | SMILES | IC50 [1] [nM] | IC50 [2] [nM] | also measured
1 | CC(/C=C/[C@@H]1C[C@]2(CO2)CC(C)(C)O1)=C\C[C@H]1CC[C@@H](NC(=O)/C=C\[C@H](C)OC(=O)C2CCN(C)CC2)CC1 [Compound 16, (S,Z)-5-((1R,4R)-4-((2E,4E)-5-((3R,5S)-7,7-dimethyl-1,6-dioxaspiro[2.5]octan-5-yl)-3-methylpenta-2,4-dienyl)cyclohexylamino)-5-oxopent-3-en-2-yl 1-methylpiperidine-4-carboxylate] | > 1000 | 10000 | 
2 | CC(/C=C/[C@@H]1C[C@]2(CO2)CC(C)(C)O1)=C\C[C@H]1CC[C@@H](NC(=O)/C=C\[C@H](C)OC(=O)C2CCOCC2)CC1 [Compound 17, (S,Z)-5-((1R,4R)-4-((2E,4E)-5-((3R,5S)-7,7-dimethyl-1,6-dioxaspiro[2.5]octan-5-yl)-3-methylpenta-2,4-dienyl)cyclohexylamino)-5-oxopent-3-en-2-yl tetrahydro-2H-pyran-4-carboxylate] | 440 | 1970 | 
3 | CC(/C=C/[C@@H]1C[C@]2(CO2)CC(C)(C)O1)=C\C[C@H]1CC[C@@H](NC(=O)/C=C\[C@H](C)OC(=O)c2ccco2)CC1 [Compound 18, (S,Z)-5-((1R,4R)-4-((2E,4E)-5-((3R,5S)-7,7-dimethyl-1,6-dioxaspiro[2.5]octan-5-yl)-3-methylpenta-2,4-dienyl)cyclohexylamino)-5-oxopent-3-en-2-yl furan-2-carboxylate] | 140 | 3500 | 
4 | CC(/C=C/[C@@H]1C[C@]2(CO2)CC(C)(C)O1)=C\C[C@H]1CC[C@@H](NC(=O)/C=C\[C@H](C)OC(=O)c2cccn2C)CC1 [Compound 19, (S,Z)-5-((1R,4R)-4-((2E,4E)-5-((3R,5S)-7,7-Dimethyl-1,6-dioxaspiro[2.5]octan-5-yl)-3-methylpenta-2,4-dienyl)cyclohexylamino)-5-oxopent-3-en-2-yl 1-methyl-1H-pyrrole-2-carboxylate] | 390 | 4300 | 
5 | CC(/C=C/[C@@H]1C[C@]2(CO2)CC(C)(C)O1)=C\C[C@H]1CC[C@@H](NC(=O)/C=C\[C@H](C)OC(=O)c2ccccc2)CC1 [Compound 20, (S,Z)-5-((1R,4R)-4-((2E,4E)-5-((3R,5S)-7,7-dimethyl-1,6-dioxaspiro[2.5]octan-5-yl)-3-methylpenta-2,4-dienyl)cyclohexylamino)-5-oxopent-3-en-2-yl benzoate] | 410 | 4900 | 
6 | CC(/C=C/[C@@H]1C[C@]2(CO2)CC(C)(C)O1)=C\C[C@H]1CC[C@@H](NC(=O)/C=C\[C@H](C)OC(=O)c2cccnc2)CC1 [Compound 21, (S,Z)-5-((1R,4R)-4-((2E,4E)-5-((3R,5S)-7,7-dimethyl-1,6-dioxaspiro[2.5]octan-5-yl)-3-methylpenta-2,4-dienyl)cyclohexylamino)-5-oxopent-3-en-2-yl nicotinate] | 160 | 8100 | 
7 | CC(/C=C/[C@@H]1C[C@]2(CO2)CC(C)(C)O1)=C\C[C@H]1CC[C@@H](NC(=O)/C=C\[C@H](C)OC(=O)C2CCN(c3ccnc(C(F)(F)F)n3)CC2)CC1 [Compound 22, (S,Z)-5-((1R,4R)-4-((2E,4E)-5-((3R,5S)-7,7-dimethyl-1,6-dioxaspiro[2.5]octan-5-yl)-3-methylpenta-2,4-dienyl)cyclohexylamino)-5-oxopent-3-en-2-yl 1-(2-(trifluoromethyl)pyrimidin-4-yl)piperidine-4-carboxylate] | > 1000 | > 10000 | 
8 | CC(/C=C/[C@@H]1C[C@]2(CO2)CC(C)(C)O1)=C\C[C@H]1CC[C@@H](NC(=O)/C=C\[C@H](C)OC(=O)C(C)(C)C)CC1 [Compound 23, (S,Z)-5-((1R,4R)-4-((2E,4E)-5-((3R,5S)-7,7-dimethyl-1,6-dioxaspiro[2.5]octan-5-yl)-3-methylpenta-2,4-dienyl)cyclohexylamino)-5-oxopent-3-en-2-yl pivalate] | 30 | 760 | 
9 | CC(/C=C/[C@@H]1C[C@]2(CO2)CC(C)(C)O1)=C\C[C@H]1CC[C@@H](NC(=O)/C=C\[C@H](C)OC(=O)N2CCN(C3CCCCCC3)CC2)CC1 [Compound 24, (S,Z)-5-((1R,4R)-4-((2E,4E)-5-((3R,5S)-7,7-dimethyl-1,6-dioxaspiro[2.5]octan-5-yl)-3-methylpenta-2,4-dienyl)cyclohexylamino)-5-oxopent-3-en-2-yl 4-cycloheptylpiperazine-1-carboxylate] |  | > 500 | IC50 [3]: > 1000 nM
10 | COc1cccc(N2CCN(C(=O)O[C@@H](C)/C=C\C(=O)N[C@H]3CC[C@@H](C/C=C(C)/C=C/[C@@H]4C[C@]5(CO5)CC(C)(C)O4)CC3)CC2)c1 [Compound 25, (S,Z)-5-((1R,4R)-4-((2E,4E)-5-((3R,5S)-7,7-dimethyl-1,6-dioxaspiro[2.5]octan-5-yl)-3-methylpenta-2,4-dienyl)cyclohexylamino)-5-oxopent-3-en-2-yl 4-(3-methoxyphenyl)piperazine-1-carboxylate] | > 500 | > 2500 | IC50 [4]: > 1250 nM; IC50 [3]: > 500 nM
11 | CC(/C=C/[C@@H]1C[C@](O)(CCl)CC(C)(C)O1)=C\C[C@H]1CC[C@@H](NC(=O)/C=C\[C@H](C)OC(=O)N2CCN(C3CCCCCC3)CC2)CC1 [Compound 28, (S,Z)-5-((1R,4R)-4-((2E,4E)-5-((2S,4R)-4-(chloromethyl)-4-hydroxy-6,6-dimethyltetrahydro-2H-pyran-2-yl)-3-methylpenta-2,4-dienyl)cyclohexylamino)-5-oxopent-3-en-2-yl 4-cycloheptylpiperazine-1-carboxylate] |  | > 5000 | IC50 [4]: > 1250 nM; IC50 [3]: > 10000 nM
12 | CC(/C=C/[C@H]1OCC[C@@]2(CO2)[C@@H]1O)=C\C[C@H]1CC[C@@H](NC(=O)/C=C\[C@H](C)OC(=O)C(C)C)CC1 [Compound 38, (S,Z)-5-((1S,4R)-4-((2E,4E)-5-((3R,4R,5R)-4-hydroxy-1,6-dioxaspiro[2.5]octan-5-yl)-3-methylpenta-2,4-dienyl)cyclohexylamino)-5-oxopent-3-en-2-yl isobutyrate] | > 1000 | > 10000 | 
13 | CC(/C=C/[C@@H]1C[C@]2(CO2)CC(C)(C)O1)=C\C[C@H]1OC[C@@H](NC(=O)/C=C\[C@H](C)OC(=O)C(C)C)CO1 [Compound 48, (S,Z)-5-((2R,5R)-2-((2E,4E)-5-((3R,5S)-7,7-dimethyl-1,6-dioxaspiro[2.5]octan-5-yl)-3-methylpenta-2,4-dienyl)-1,3-dioxan-5-ylamino)-5-oxopent-3-en-2-yl isobutyrate] | 170 | 5200 | compound remaining in the buffer solution ([5]; after 6 weeks): 58%; degradable products ([5]; after 1 day): No degradable products were found; half-life at 100 μM ([5]; PBS buffer, read-out: calculated half life (converted)): 50.4 days
14 | CC(/C=C/[C@@H]1C[C@]2(CO2)CC(C)(C)O1)=C\C[C@H]1OC[C@@H](NC(=O)/C=C\[C@H](C)OC(=O)C(C)(C)C)CO1 [Compound 49, (S,Z)-5-((2R,5R)-2-((2E,4E)-5-((3R,5S)-7,7-dimethyl-1,6-dioxaspiro[2.5]octan-5-yl)-3-methylpenta-2,4-dienyl)-1,3-dioxan-5-ylamino)-5-oxopent-3-en-2-yl pivalate] | 340 | 1180 | 
15 | CC(=O)O[C@@H](C)CCC(=O)N[C@H]1CO[C@@H](C/C=C(C)/C=C/[C@@H]2C[C@]3(CO3)CC(C)(C)O2)OC1 [Compound 53, (S)-5-((2R,5R)-2-((2E,4E)-5-((3R,5S)-7,7-dimethyl-1,6-dioxaspiro[2.5]octan-5-yl)-3-methylpenta-2,4-dienyl)-1,3-dioxan-5-ylamino)-5-oxopentan-2-yl acetate] | > 1000 | > 10000 | 
